PubChem BioAssay AID1259407 (Chemical Carcinogenesis Research Information System (CCRIS), 2018)
Calls of active or inactive are those of the source. No rule for the calls is given here.

System: CCRIS mutagenicity, Ames/micronucleus/aberration tests
Assay: CCRIS mutagenicity studies

SMILES: Cc1cc(-c2ccc(N=Nc3cc(S(=O)(=O)O)c4ccccc4c3N)c(C)c2)ccc1N=Nc1cc(S(=O)(=O)O)c2ccccc2c1N
- mutagenic call (Test System: AMES SALMONELLA TYPHIMURIUM, Strain/Indicator: SV50, Metabolic Activation: HAMSTER, LIVER, S-9, Method: PREINCUBATION (PRIVAL METHOD)): active; positive
- mutagenic call (Test System: AMES SALMONELLA TYPHIMURIUM, Strain/Indicator: SV50, Metabolic Activation: RAT, LIVER, S-9, AROCLOR 1254, Method: PREINCUBATION (PRIVAL METHOD)): active; positive
- mutagenic call (Test System: AMES SALMONELLA TYPHIMURIUM, Strain/Indicator: TA98, Metabolic Activation: HAMSTER, LIVER, S-9, AROCLOR 1254 (10%), Method: PREINCUBATION): inactive; negative
- mutagenic call (Test System: AMES SALMONELLA TYPHIMURIUM, Strain/Indicator: TA98, Metabolic Activation: HAMSTER, LIVER, S-9, AROCLOR 1254, Method: STANDARD PLATE): inactive; negative
- mutagenic call (Test System: AMES SALMONELLA TYPHIMURIUM, Strain/Indicator: TA98, Metabolic Activation: HAMSTER, LIVER, S-9, Method: PREINCUBATION (PRIVAL METHOD)): active; positive
- mutagenic call (Test System: AMES SALMONELLA TYPHIMURIUM, Strain/Indicator: TA98, Metabolic Activation: NONE, Method: PREINCUBATION): inactive; negative
- mutagenic call (Test System: AMES SALMONELLA TYPHIMURIUM, Strain/Indicator: TA98, Metabolic Activation: NONE, Method: STANDARD PLATE): inactive; negative
- mutagenic call (Test System: AMES SALMONELLA TYPHIMURIUM, Strain/Indicator: TA98, Metabolic Activation: RAT, LIVER, S-9, AROCLOR 1254 (10%), Method: PREINCUBATION): inactive; negative
- mutagenic call (Test System: AMES SALMONELLA TYPHIMURIUM, Strain/Indicator: TA98, Metabolic Activation: RAT, LIVER, S-9, AROCLOR 1254, Method: PREINCUBATION (PRIVAL METHOD)): active; positive
- mutagenic call (Test System: AMES SALMONELLA TYPHIMURIUM, Strain/Indicator: TA98, Metabolic Activation: RAT, LIVER, S-9, AROCLOR 1254, Method: STANDARD PLATE): inactive; negative
- mutagenic call (Test System: AMES SALMONELLA TYPHIMURIUM, Strain/Indicator: TA100, Metabolic Activation: HAMSTER, LIVER, S-9, AROCLOR 1254 (10%), Method: PREINCUBATION): inactive; negative
- mutagenic call (Test System: AMES SALMONELLA TYPHIMURIUM, Strain/Indicator: TA100, Metabolic Activation: HAMSTER, LIVER, S-9, AROCLOR 1254, Method: STANDARD PLATE): inactive; negative
- mutagenic call (Test System: AMES SALMONELLA TYPHIMURIUM, Strain/Indicator: TA100, Metabolic Activation: NONE, Method: PREINCUBATION): inactive; negative
- mutagenic call (Test System: AMES SALMONELLA TYPHIMURIUM, Strain/Indicator: TA100, Metabolic Activation: NONE, Method: STANDARD PLATE): inactive; negative
- mutagenic call (Test System: AMES SALMONELLA TYPHIMURIUM, Strain/Indicator: TA100, Metabolic Activation: RAT, LIVER, S-9, AROCLOR 1254 (10%), Method: PREINCUBATION): inactive; negative
- mutagenic call (Test System: AMES SALMONELLA TYPHIMURIUM, Strain/Indicator: TA100, Metabolic Activation: RAT, LIVER, S-9, AROCLOR 1254, Method: STANDARD PLATE): inactive; negative
- mutagenic call (Test System: AMES SALMONELLA TYPHIMURIUM, Strain/Indicator: TA1535, Metabolic Activation: HAMSTER, LIVER, S-9, AROCLOR 1254 (10%), Method: PREINCUBATION): inactive; negative
- mutagenic call (Test System: AMES SALMONELLA TYPHIMURIUM, Strain/Indicator: TA1535, Metabolic Activation: HAMSTER, LIVER, S-9, AROCLOR 1254, Method: STANDARD PLATE): inactive; negative
- mutagenic call (Test System: AMES SALMONELLA TYPHIMURIUM, Strain/Indicator: TA1535, Metabolic Activation: NONE, Method: PREINCUBATION): inactive; negative
- mutagenic call (Test System: AMES SALMONELLA TYPHIMURIUM, Strain/Indicator: TA1535, Metabolic Activation: NONE, Method: STANDARD PLATE): inactive; negative
- mutagenic call (Test System: AMES SALMONELLA TYPHIMURIUM, Strain/Indicator: TA1535, Metabolic Activation: RAT, LIVER, S-9, AROCLOR 1254 (10%), Method: PREINCUBATION): inactive; negative
- mutagenic call (Test System: AMES SALMONELLA TYPHIMURIUM, Strain/Indicator: TA1535, Metabolic Activation: RAT, LIVER, S-9, AROCLOR 1254, Method: STANDARD PLATE): inactive; negative
- mutagenic call (Test System: AMES SALMONELLA TYPHIMURIUM, Strain/Indicator: TA1537, Metabolic Activation: HAMSTER, LIVER, S-9, AROCLOR 1254 (10%), Method: PREINCUBATION): inactive; negative
- mutagenic call (Test System: AMES SALMONELLA TYPHIMURIUM, Strain/Indicator: TA1537, Metabolic Activation: HAMSTER, LIVER, S-9, AROCLOR 1254, Method: STANDARD PLATE): inactive; negative
- mutagenic call (Test System: AMES SALMONELLA TYPHIMURIUM, Strain/Indicator: TA1537, Metabolic Activation: NONE, Method: PREINCUBATION): inactive; negative
- mutagenic call (Test System: AMES SALMONELLA TYPHIMURIUM, Strain/Indicator: TA1537, Metabolic Activation: NONE, Method: STANDARD PLATE): inactive; negative
- mutagenic call (Test System: AMES SALMONELLA TYPHIMURIUM, Strain/Indicator: TA1537, Metabolic Activation: RAT, LIVER, S-9, AROCLOR 1254 (10%), Method: PREINCUBATION): inactive; negative
- mutagenic call (Test System: AMES SALMONELLA TYPHIMURIUM, Strain/Indicator: TA1537, Metabolic Activation: RAT, LIVER, S-9, AROCLOR 1254, Method: STANDARD PLATE): inactive; negative
- mutagenic call (Test System: AMES SALMONELLA TYPHIMURIUM, Strain/Indicator: TA1538, Metabolic Activation: HAMSTER, LIVER, S-9, AROCLOR 1254, Method: STANDARD PLATE): inactive; negative
- mutagenic call (Test System: AMES SALMONELLA TYPHIMURIUM, Strain/Indicator: TA1538, Metabolic Activation: HAMSTER, LIVER, S-9, Method: STANDARD PLATE): inactive; negative
- mutagenic call (Test System: AMES SALMONELLA TYPHIMURIUM, Strain/Indicator: TA1538, Metabolic Activation: NONE, Method: STANDARD PLATE): inactive; negative
- mutagenic call (Test System: AMES SALMONELLA TYPHIMURIUM, Strain/Indicator: TA1538, Metabolic Activation: RAT, LIVER, S-9, AROCLOR 1254, Method: STANDARD PLATE): inactive; negative
- mutagenic call (Test System: MOUSE LYMPHOMA, Strain/Indicator: L5178Y (TK+/TK-), Metabolic Activation: NONE, Method: SUSPENSION/PLATE): inactive; negative. reevaluation of results: negative
- mutagenic call (Test System: MOUSE LYMPHOMA, Strain/Indicator: L5178Y (TK+/TK-), Metabolic Activation: RAT, LIVER, S-9, AROCLOR 1254, Method: SUSPENSION/PLATE): inactive; negative. reevaluation of results: negative
